These results are taken from publication PMC9601137, “Deciphering Cellodextrin and Glucose Uptake in Clostridium thermocellum” (mBio, 2022).

Entries after “also recorded” stand apart in the source; their conditions may differ. Like-named read-outs stand apart in the source and are kept apart here.

Test [1] has as its target T1, CbpB (Acetivibrio thermocellus (Clostridium thermocellum), UniProt A3DE73, V209A/V350L). The experiment in a line: NMR titration (1H-15N HSQC) of 15N-labelled CbpB with saccharides. The format is binding. The note with it: 298 K, pH 6.5, protein:substrate up to 1:20. As for the experimental part: (§1) NMR titration experiments were performed at 298 K on a Bruker Avance III 600 MHz NMR spectrometer equipped with a cryoprobe. The ^15N-labeled protein samples contained 0.1 or 0.2 mM sugar-binding protein in 20 mM Bis-Tris (pH 6.5), 100 mM KCl, 0.02% (wt/vol) dextran sulfate sodium, and 90% H2O/10% D2O. The concentrations of carbohydrate substrates were 10, 20, or 100 mM in the same buffer. For the titration, the substrates were gradually added to the labeled proteins until the ratio of their concentrations reached 1:20. A series of two-dimensional ^1H-^15N HSQC spectra were recorded at different protein-substrate ratios during the titration.

Test [2] has as its target T1, CbpB. The test is described as follows: ITC titration of carbohydrate ligands with CbpB. It counts as binding. The method, then:
(§2) Isothermal titration calorimetry measurements were performed at 30°C using a MicroCal PEAQ-ITC (Malvern Panalytical Ltd., Malvern, United Kingdom). Protein samples were dialyzed against buffer containing 50 mM Tris-HCl (pH 8.0) and 100 mM NaCl. Carbohydrate-ligand solutions of cellodextrins, glucose, and xylose were prepared using the same buffer as for protein dialysis. The sample cell was loaded with 280 μL of protein sample (~50 μM), and the reference cell contained distilled water. The syringe was filled with 50 μL of ligand (500 to 750 μM). Titrations were carried out by adding 0.8 μL of ligand for the first injection and 2 μL for the subsequent 19 injections, with stirring at 750 rpm. Binding parameters were determined by fitting the experimental binding isotherms using a single-site model.
(Isothermal titration calorimetry measures the heat released or taken up as one component is titrated into another.)

Another test deals with C. thermocellum cells. The test is described as follows: Cell-associated cellulosome (cellulase) activity measurement. It counts as cell-based, Clostridium thermocellum. The following applies: glucose+cellobiose medium vs glucose medium. The method, then: C. thermocellum cells were cultivated to the early exponential stage with various carbon sources. Cell suspensions (1.0 mL) were sampled and centrifuged at 15,000 × g for 10 min to separate supernatant from the pellet. Cell-associated cellulosome activity was measured in a 1.0-mL reaction volume containing the pellet and 15 mg Avicel as the substrate, using GS-2 medium as the reaction buffer. The concentration of reducing sugars was determined by the 3,5-dinitrosalicylic acid method after incubation at 55°C for 24 h unless otherwise stated. One unit of enzyme activity is defined as the amount of enzyme that releases 1 nmol reducing sugar (glucose equivalent) per min.

Test [3] addresses T2, CbpA (Acetivibrio thermocellus (Clostridium thermocellum), UniProt A3DCF2). The experiment in a line: NMR titration (1H-15N HSQC) of 15N-labelled CbpA with saccharides. The format is binding. The note with it: 298 K, pH 6.5, protein:substrate up to 1:20. As for the experimental part:
as §1

The target in test [4] is T2, CbpA. The test is described as follows: ITC titration of carbohydrate ligands with CbpA. It counts as binding. As for the experimental part: as §2
The next test has as its system CbpC. Details: method as in PMID 18952792. The following applies: cited from earlier work.
A further test deals with Lbp. More on the design: method as in PMID 18952792. The note with it: previous study; cited from earlier work.
The test system of test [5] is CbpD. The test is described as follows: ITC titration of carbohydrate ligands with CbpD. It counts as binding, Clostridium thermocellum. The following applies: 30°C. As for the experimental part: as §2
For test [6], the system named is CbpD. The test is described as follows: NMR titration of 15N-labelled CbpD with saccharides. It counts as binding, Clostridium thermocellum. The following applies: 298 K. As for the experimental part: as §1
[7] abbreviates: ITC, 30°C, 50 mM Tris-HCl pH 8.0, 100 mM NaCl, single-site model.
Where [8] appears, read: ITC, 30°C, 50 mM Tris-HCl pH 8.0, 100 mM NaCl, single-site model, read-out: KD (dissociation constant).

One may read the Kd as the free concentration of one partner at which half of the binding sites on the other are occupied at equilibrium, for simple one-to-one binding.

T1 sequence (A3DE73 entry or part of it V209A/V350L): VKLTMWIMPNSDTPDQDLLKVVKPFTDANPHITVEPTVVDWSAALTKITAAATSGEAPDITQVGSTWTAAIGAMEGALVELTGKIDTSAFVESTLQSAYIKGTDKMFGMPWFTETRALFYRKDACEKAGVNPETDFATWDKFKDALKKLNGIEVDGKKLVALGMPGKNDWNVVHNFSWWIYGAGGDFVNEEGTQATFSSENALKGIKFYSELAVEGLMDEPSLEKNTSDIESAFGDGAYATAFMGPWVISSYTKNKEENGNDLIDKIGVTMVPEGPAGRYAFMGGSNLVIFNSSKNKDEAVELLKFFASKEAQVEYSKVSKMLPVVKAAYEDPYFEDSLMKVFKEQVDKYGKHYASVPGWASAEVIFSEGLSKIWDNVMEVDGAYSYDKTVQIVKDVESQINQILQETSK
T2 sequence (A3DCF2 entry or part of it): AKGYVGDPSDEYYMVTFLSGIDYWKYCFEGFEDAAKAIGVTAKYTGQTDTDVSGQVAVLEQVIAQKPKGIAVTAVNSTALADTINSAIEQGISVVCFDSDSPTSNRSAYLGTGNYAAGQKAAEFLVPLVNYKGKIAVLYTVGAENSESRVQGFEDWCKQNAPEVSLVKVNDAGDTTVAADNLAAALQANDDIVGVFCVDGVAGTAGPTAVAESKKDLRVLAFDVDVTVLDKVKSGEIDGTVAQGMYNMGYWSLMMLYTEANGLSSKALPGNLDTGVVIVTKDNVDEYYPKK

For the molecule `O=C[C@H](O)[C@@H](O)[C@H](O[C@@H]1O[C@H](CO)[C@@H](O)[C@H](O)[C@H]1O)[C@H](O)CO` [Cellobiose, cellobiose], the “binding to CbpB in NMR titration (HSQC peak shifts)” value at CbpB [1] is recorded as “can bind; also recorded: significant peak shifts”. The molecule further gave a Kd at CbpB [2] of 1.89 ± 0.36 µM. Moreover, at CbpB [2] (ITC, 30°C), the Ka is recorded as 5.29 ± 0.99 ×10^5 · M^−1, the TΔS worked out at 4.66 kcal/mol, the ΔG was -7.93 kcal/mol and the “ΔH (change in enthalpy)” value was -3.27 ± 0.096 kcal/mol. In addition, the “N (number of binding site)” value on CbpB [2] (setting [7]) is listed as 1.03 ± 0.02. Also, the “induction effect on cellulosome expression (cellulase activity)” value with C. thermocellum cells (wild-type cells, 5 g/L cellobiose) is “significant induction effect”. The “induction effect on cellulosome expression (cellulase activity)” value in the test with C. thermocellum cells (ΔtransporterB and Δ2554 cells) was “no induction effect”. Also, the “binding to CbpA in NMR titration (HSQC peak shifts)” value on CbpA [3] was “not”.

Take `OC[C@H]1O[C@@H](O[C@H]2[C@H](O)[C@@H](O)[C@H](O[C@H]3[C@H](O)[C@@H](O)[C@H](O[C@H]4[C@H](O)[C@@H](O)[C@H](O[C@H]5[C@H](O)[C@@H](O)C(O)O[C@@H]5CO)O[C@@H]4CO)O[C@@H]3CO)O[C@@H]2CO)[C@H](O)[C@@H](O)[C@@H]1O` (some centres unmarked) [Cellopentaose, cellopentaose]: on CbpB [2] (ITC, 30°C), the Ka is recorded as 14.9 ± 3.3 ×10^5 · M^−1, the TΔS was 11.3 kcal/mol, the ΔG was -8.58 kcal/mol and the “ΔH (change in enthalpy)” value was 2.75 ± 0.072 kcal/mol. Moreover, the “N (number of binding site)” value at CbpB [2] (setting [7]) is 1.02 ± 0.01. In addition, the Kd at CbpB [2] (setting [8]) is 0.67 ± 0.15 µM.

As for `OC[C@H]1O[C@@H](O[C@H]2[C@H](O)[C@@H](O)[C@H](O[C@H]3[C@H](O)[C@@H](O)[C@H](O[C@H]4[C@H](O)[C@@H](O)C(O)O[C@@H]4CO)O[C@@H]3CO)O[C@@H]2CO)[C@H](O)[C@@H](O)[C@@H]1O` (some centres unmarked) [Cellotetraose, cellotetraose], at CbpB [2] (ITC, 30°C), the Ka is recorded as 17.8 ± 2.5 ×10^5 · M^−1; the TΔS amounted to 10.3 kcal/mol; the “interaction with CbpB in ITC, in words” value is reported as “highest binding affinity”; the ΔG was -8.68 kcal/mol. In addition, the “ΔH (change in enthalpy)” value on CbpB [2] (ITC, 30°C) came out at 1.66 ± 0.0263 kcal/mol. The “N (number of binding site)” value on CbpB [2] (setting [7]) is reported as 1.02 ± 0.08. The Kd on CbpB [2] (ITC, 30°C, 50 mM Tris-HCl pH 8.0, 100 mM NaCl, single-site model, listed as cellotetraose, read-out: KD (dissociation constant)) was 0.562 µM. The Kd at CbpB [2] (setting [8]) was 0.56 ± 0.08 µM.

In the case of `OC[C@H]1O[C@@H](O[C@H]2[C@H](O)[C@@H](O)[C@H](O[C@H]3[C@H](O)[C@@H](O)C(O)O[C@@H]3CO)O[C@@H]2CO)[C@H](O)[C@@H](O)[C@@H]1O` (some centres unmarked) [Cellotriose, cellotriose], the “binding to CbpB in NMR titration (HSQC peak shifts)” value at CbpB [1] is on record as “significant peak shifts”. Besides, at CbpB [2] (ITC, 30°C), the Ka was 8.55 ± 1.69 ×10^5 · M^−1, the TΔS came to 10.7 kcal/mol, the ΔG was -8.25 kcal/mol and the “ΔH (change in enthalpy)” value was 2.49 ± 0.072 kcal/mol. Moreover, the “N (number of binding site)” value on CbpB [2] (setting [7]) worked out at 0.97 ± 0.02. For the same molecule, the Kd at CbpB [2] (setting [8]) amounted to 1.17 ± 0.23 µM. Besides, the “binding to CbpA in NMR titration (HSQC peak shifts)” value at CbpA [3] is “not”.

For the molecule `OC[C@H]1OC(O)[C@H](O)[C@@H](O)[C@@H]1O` (some centres unmarked) [Glucose, glucose], the dissociation constant Kd at CbpA [4] stood at 240 ± 95 µM. In addition, the “binding to CbpA in ITC, in words” value at CbpA [4] (ITC) was “remarkably weak”. At CbpA [4] (ITC, 30°C), the Ka was 0.042 ± 0.016 ×10^5 · M^−1, the TΔS came out at 5.43 kcal/mol, the ΔG is -5.02 kcal/mol and the “ΔH (change in enthalpy)” value worked out at 0.409 ± 0.086 kcal/mol. In addition, the “N (number of binding site)” value at CbpA [4] (setting [7]) was 1.06 ± 0.07. At CbpB [1], the “binding to CbpB in NMR titration (HSQC peak shifts)” value is given as “not”. Further, the “interaction with CbpB in ITC, in words” value on CbpB [2] (ITC, 30°C) is “could not be fitted to obtain reasonable N and KD values”. Moreover, the “binding to CbpC in previous ITC experiments” value in the test with CbpC is “can bind”. The “binding to CbpA in NMR titration (HSQC peak shifts)” value on CbpA [3] is listed as “binds; also recorded: significant peak shifts”.

For `OC[C@H]1O[C@@H](O[C@H]2[C@H](O)[C@@H](CO)OC(O)[C@@H]2O)[C@H](O)[C@@H](O)[C@@H]1O` (some centres unmarked) [Laminaribiose, laminaribiose], on CbpB [2] (ITC, 30°C), the Ka is recorded as 0.93 ± 0.25 ×10^5 · M^−1; the TΔS was determined as 7.98 kcal/mol; the “interaction with CbpB in ITC, in words” value is reported as “lower affinity compared to cellobiose”; the ΔG is -6.91 kcal/mol. For the same molecule, at CbpB [2] (ITC, 30°C), the “ΔH (change in enthalpy)” value stood at 1.09 ± 0.1 kcal/mol. Besides, the “N (number of binding site)” value at CbpB [2] (setting [7]) came to 0.98 ± 0.04. For the same molecule, at CbpB [2] (setting [8]), the Kd turned out to be 10.7 ± 2.8 µM. Moreover, the “binding to Lbp in ITC assays” value with Lbp is “shown to bind”.

With `O=C[C@H](O)[C@@H](O)[C@H](O)CO` [xylose], the “interaction with CbpD in ITC” value in the test on CbpD [5] is given as “could not detect any xylose-binding ability”. Besides, the “interaction with CbpD in NMR titration” value in the test on CbpD [6] is on record as “could not detect any xylose-binding ability”.
